This note sets out measurements from PMC4026384, “Antibacterial Activity of THAM Trisphenylguanide against Methicillin-Resistant Staphylococcus aureus” (PLoS ONE, 2014).

≈ marks a conversion by molar mass, not a printed value. Entries after “also recorded” stand apart in the source; their conditions may differ. Read-outs that look alike come from different tables or passages of the source.

Data set [1] has as its system Acinetobacter baumannii ATCC 19606. The data set can be described thus: Minimum inhibitory concentration (microdilution). The data set is classed as cell-based. The note with it: Acinetobacter baumannii, ATCC19606; A. baumannii ATCC 19606; LB media; median of at least 3 determinations; read-out: MIC. The procedure:
(§1) Minimum inhibitory concentration (MIC) values were determined for those compounds showing the most antibacterial activity in the bacterial viability assays (see Supplemental Materials) against each of the strains of bacteria using a microdilution method in 96 well plates with LB media according to guidelines published by the British Society for Antimicrobial Chemotherapy. Minimum bactericidal concentrations (MBC) were determined by plating 10 µL and 100 µL from each well showing no signs of growth after overnight incubation of the MIC plates and determining the minimum concentration showing a 3-log reduction of viable bacteria. MIC and MBC were also determined in cation-adjusted Mueller-Hinton broth (Hardy Diagnostics, Santa Maria, CA) for some compounds and strains.

The subject of data set [2] is Acinetobacter baumannii ATCC BAA1605. The data set can be described thus: Minimum inhibitory concentration (microdilution). The data set is classed as cell-based. The conditions noted are these: ATCCBAA1605, A. baumannii ATCC BAA1605, LB media, median of at least 3 determinations. The procedure:
as §1

For data set [3], the system named is Enterococcus faecalis ATCC V583. The data set can be described thus: Minimum inhibitory concentration (microdilution). The note with it: Enterococcus faecalis, ATCCV583; E. faecalis V583; LB media; median of at least 3 determinations; read-out: MIC. Format: cell-based. The procedure:
as §1

Data set [4] relates to Enterococcus faecalis MSU#10. The data set can be described thus: Minimum inhibitory concentration (microdilution). The data set is classed as cell-based. The note with it: Enterococcus faecalis; E. faecalis MSU#10; LB media; median of at least 3 determinations; read-out: MIC. The procedure: as §1
Data set [5] relates to Escherichia coli (strain K91). As to the kind of experiment: Minimum inhibitory concentration (microdilution). Format: cell-based. The conditions noted are these: E. coli K91. How it is done:
as §1

Data set [6] deals with Pseudomonas aeruginosa (strain PA01). As to the kind of experiment: Minimum inhibitory concentration (microdilution). Format: cell-based. The conditions noted are these: Pseudomonas aeruginosa; P. aeruginosa PA01; LB media; median of at least 3 determinations; read-out: MIC. The procedure:
as §1

Data set [7] has as its system Staphylococcus aureus RN4220. The data set can be described thus: Minimum inhibitory concentration (microdilution). The data set is classed as cell-based. The note with it: S. aureus RN4220. The procedure:
as §1

The subject of data set [8] is Escherichia coli (strain K91). The data set can be described thus: Minimum bactericidal concentration. The data set is classed as cell-based. The conditions noted are these: E. coli K91; MHB; median; 3-log reduction of viable bacteria. The procedure: as §1
Data set [9] deals with Staphylococcus aureus RN4220. The data set can be described thus: Minimum bactericidal concentration. The data set is classed as cell-based. The note with it: S. aureus RN4220; MHB; median; 3-log reduction of viable bacteria. The procedure:
as §1

The subject of another data set is MRSA strain LAC, USA300. As to the kind of experiment: Minimum bactericidal concentration. The data set is classed as cell-based, Staphylococcus aureus. The note with it: MHB, median, 3-log reduction of viable bacteria. The procedure: as §1
A short description of data set [10]: Cell toxicity assay (MTS). Format: cell-based, human. The note with it: human, MTS assay, concentration which killed 50% of the cells. How it is done:
(§2) The HaCaT cell line was grown in Epilife medium (MEPI500Ca) with human keratinocyte growth supplement (Invitrogen, San Diego, CA). Both types of cells were harvested using Tryspin/EDTA and diluted to 1×10^5 cells per well in a 96-well plate. Ten concentrations covering five orders of magnitude were tested with six replicates per concentration. […] MTS/PMS solution (Promega, Madison, WI) was added to the wells and absorbance was measured at 490 nm two to four hours later. Data was analyzed using GraphPad Prism version 5.0 (GraphPad Software, La Jolla, CA) using a variable slope inhibition dose response curve.

In data set [11] the test system is MRSA. The data set can be described thus: Time-to-kill (kill curve) assay. Format: cell-based, Staphylococcus aureus. The procedure:
Bacteria were cultured to mid-log phase (OD600 ∼0.4) in LB media with shaking and then diluted to approximately 10^4 to 10^5 CFU/mL. Bacteria were then treated with compound at the MIC, 2×MIC, and 4×MIC (as determined by the MIC assays). Over the course of 24 hours, bacteria were incubated at 37°C and aliquots removed at various time intervals, diluted, and plated on LB agar. Plated bacteria were incubated overnight at 37°C and CFU/mL were calculated for each time interval.

Data set [12] deals with MRSA. The data set can be described thus: Cytoplasmic leakage & bacteriolysis assay. Format: cell-based, Staphylococcus aureus. The conditions noted are these: for change in A260 of culture supernatant (cytoplasmic leakage): 4×MIC (8 mg/L), within the first 30 minutes, versus untreated controls; for number of viable cells (CFUs) during the leakage assay: over the 3 hour period. How it is done:
Bacteria were cultured to mid-log phase (OD600 ∼0.4) in LB media with shaking. Bacteria were then harvested and resuspended in PBS to a concentration of ∼10^8 CFU/mL. […] Bacteria were monitored over time for cytoplasmic leakage via A260 measurements and for cell viability. For A260 readings, sample aliquots were centrifuged for 5 min at 10,000×g at room temperature to remove cellular debris. Viability was monitored by determining the CFU/mL during the first 3 hours post treatment as described above for the kill curve assays.

A further data set deals with Acanthamoeba castellanii. The data set can be described thus: Toxicity against eukaryotic pathogen. Format: cell-based. The conditions noted are these: data not shown.
The test system of the next data set is all of the pathogens. The data set can be described thus: MIC against all of the pathogens (LB). Format: cell-based. The conditions noted are these: complex medium (LB), actively growing bacteria. How it is done: as §1
Data set [13] relates to HaCaT human keratinocytes. As to the kind of experiment: Cell toxicity assay (MTS). The data set is classed as cell-based. How it is done: as §2
Data set [14] has as its system human breast cancer cell line MDA-MB-231. As to the kind of experiment: Cell toxicity assay (MTS). The note with it: MDA-231. Format: cell-based. How it is done:
as §2

The next data set has as its system Balb/c mice. As to the kind of experiment: In vivo toxicity study (serum chemistry and enzyme levels). Further details: species or system mouse. The conditions noted are these: i.p. 0.1 ml of 10, 50, 100 µM, blood two hours post injection, versus mock-treated control. How it is done: THAM-3ΦG was chosen for the in vivo challenge experiments, because it had the best combination of antibacterial activity and low toxicity (Tables 1–3). In vivo toxicity studies were carried out prior to the start of experiments in mice challenged with MRSA. Groups of three Balb/c mice each were injected i.p. with 0.1 ml of 0, 10, 50, and 100 µM THAM-3ФG in PBS. The highest in vivo dose represented 0.36 mg/kg. Blood was drawn from the mice at two hours post injection and submitted for a standard panel of serum chemistry and enzyme levels. The chemistry and enzyme levels were not elevated for any of the concentrations tested compared to the mock-treated control group (data not shown).

The mark [15] stands for this setting: Escherichia coli, LB media, median of at least 3 determinations, read-out: MIC.
The mark [16] stands for this setting: Staphylococcus aureus, LB media, median of at least 3 determinations, read-out: MIC.
The mark [17] stands for this setting: MDA-MB-231 breast cancer cells (ATCC HTB-26), MDA-231.

For the compound `[H]/N=C(\N/C(=N/[H])NCCCCCCNC(=N)NC(=N)Nc1ccc(Cl)cc1)Nc1ccc(Cl)cc1` [Chlorhexidine, chlorhexidine, reference compound], the MIC amounted to 16 µg/mL (≈ 31.7 µM) in data set [1]; 16 µg/mL (≈ 31.7 µM) in data set [2]; 6 µg/mL (≈ 11.9 µM) in data set [3]; 4 µg/mL (≈ 7.91 µM) in data set [4]; 0.44 µg/mL (≈ 0.87 µM) in data set [5] (MHB, median); 1 µg/mL (≈ 1.98 µM) in [5] (setting [15]). Moreover, the MIC in data set [6] was 8 µg/mL (≈ 15.8 µM); in data set [7] (MHB, median), 0.89 µg/mL (≈ 1.76 µM); in [7] (setting [16]) it was 1 µg/mL (≈ 1.98 µM); against all of the pathogens, ≤ 16 µg/mL. Also, the minimal bactericidal concentration (MBC) in data set [8] amounted to 0.44 µg/mL (≈ 0.87 µM); in data set [9], 0.89 µg/mL (≈ 1.76 µM); in the data set with MRSA strain LAC, USA300 it was 0.89 µg/mL (≈ 1.76 µM). Besides, the CC50 was 1.9 µg/mL (≈ 3.76 µM) in [10] (HaCaT keratinocytes) and 2.6 µg/mL (≈ 5.14 µM) in data set [10] (setting [17]). Moreover, the “time by which bactericidal activity was seen” value in the data set on MRSA [11] (1× to 4×MIC) was ≤ 24 h. For the same compound, the “change in A260 of culture supernatant (cytoplasmic leakage)” value is on record as “immediate increase in A260” in the data set on MRSA [12] and “significant increase in A260” in the data set with MRSA [12] (listed as chlorhexidine). Also, the “number of viable cells (CFUs) during the leakage assay” value in the data set on MRSA [12] was “no significant reductions in CFUs”; in the data set with MRSA [12] (listed as chlorhexidine) it was “no significant reduction in CFUs”. For the same compound, the IC50 in the data set with Acanthamoeba castellanii is ~10 µM.
In the case of `N=C(NCCCCCCNc1nc(NCCCCCCNC(=N)Nc2ccccc2)nc(NCCCCCCNC(=N)Nc2ccccc2)n1)Nc1ccccc1` [THAM-3ΦG, Trishexylaminomelamine trisphenylguanide], the MIC in [1] was > 256 µg/mL; in data set [2] it was > 256 µg/mL; in [3], 256 µg/mL (≈ 329 µM); in [4], 32 µg/mL (≈ 41.1 µM); in [5] (MHB, median) it was 8 µg/mL (≈ 10.3 µM); in [5] (setting [15]) it was 8 µg/mL (≈ 10.3 µM). Also, the MIC in data set [6] stood at 48 µg/mL (≈ 61.7 µM); in data set [7] (MHB, median), 1 µg/mL (≈ 1.29 µM); in [7] (setting [16]), 2 µg/mL (≈ 2.57 µM). In addition, the MBC stood at 16 µg/mL (≈ 20.6 µM) in [8]; 2 µg/mL (≈ 2.57 µM) in [9]; 1 µg/mL (≈ 1.29 µM) with MRSA strain LAC, USA300. Further, the CC50 was found to be 14 µg/mL (≈ 18 µM) in data set [10] (HaCaT keratinocytes) and 7.6 µg/mL (≈ 9.77 µM) in data set [10] (setting [17]). In addition, the figures for the “Relative to chlorhexidine (factor by which cytotoxicity was reduced)” value in data set [13] and in [14] were 7.1 and 3.0, respectively. The “reduction in CFU/mL” value in the data set with MRSA [11] (4×MIC, within 4 hours post treatment) stood at 3 log. Besides, the “time after which no viable cells remained” value in the data set on MRSA [11] (at the MIC) amounted to 24 h. In the data set with MRSA [12] (listed as THAM-3ФG), the “change in A260 of culture supernatant (cytoplasmic leakage)” value was “significant increase in A260; also recorded: immediate increase in A260”. The “number of viable cells (CFUs) during the leakage assay” value in the data set on MRSA [12] (listed as THAM-3ФG) is reported as “no significant reductions in CFUs”. In the data set on Balb/c mice, the “serum chemistry and enzyme levels” value was “not elevated”.
